According to paper PMC5509055 (Prostaglandins & other lipid mediators, 2017):
Counter-ions that a name gives are not always drawn.

Assays:
[1] = biological target: sphingosine kinase 1 (SK1) (Homo sapiens, UniProt Q9NYA1); assay: fluorescent NBD-sphingosine kinase assay with recombinant human SK1; type: biochemical
[2] = biological target: T1, sphingosine kinase 2 (SK2) (Homo sapiens, UniProt Q9NRA0); assay: fluorescent NBD-sphingosine kinase assay with recombinant human SK2; type: biochemical
T1 sequence (Q9NRA0 1-654): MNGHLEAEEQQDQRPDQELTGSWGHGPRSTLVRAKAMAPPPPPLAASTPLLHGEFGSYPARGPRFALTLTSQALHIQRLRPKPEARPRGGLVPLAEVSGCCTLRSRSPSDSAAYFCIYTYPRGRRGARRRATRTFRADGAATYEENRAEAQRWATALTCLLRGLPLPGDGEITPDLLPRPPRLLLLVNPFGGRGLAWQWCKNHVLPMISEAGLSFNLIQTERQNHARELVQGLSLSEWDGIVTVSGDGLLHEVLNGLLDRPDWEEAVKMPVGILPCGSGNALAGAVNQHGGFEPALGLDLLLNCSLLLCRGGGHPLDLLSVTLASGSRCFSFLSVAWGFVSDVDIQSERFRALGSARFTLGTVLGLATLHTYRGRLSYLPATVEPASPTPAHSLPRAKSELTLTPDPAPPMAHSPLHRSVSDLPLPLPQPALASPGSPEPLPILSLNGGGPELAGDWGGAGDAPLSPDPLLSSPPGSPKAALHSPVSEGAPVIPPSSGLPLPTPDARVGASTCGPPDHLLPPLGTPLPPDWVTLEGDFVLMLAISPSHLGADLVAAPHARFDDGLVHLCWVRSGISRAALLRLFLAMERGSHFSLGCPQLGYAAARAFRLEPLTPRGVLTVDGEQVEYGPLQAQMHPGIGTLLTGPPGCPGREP

Chain of sphingosine kinase 1 (SK1) (Q9NYA1 whole entry): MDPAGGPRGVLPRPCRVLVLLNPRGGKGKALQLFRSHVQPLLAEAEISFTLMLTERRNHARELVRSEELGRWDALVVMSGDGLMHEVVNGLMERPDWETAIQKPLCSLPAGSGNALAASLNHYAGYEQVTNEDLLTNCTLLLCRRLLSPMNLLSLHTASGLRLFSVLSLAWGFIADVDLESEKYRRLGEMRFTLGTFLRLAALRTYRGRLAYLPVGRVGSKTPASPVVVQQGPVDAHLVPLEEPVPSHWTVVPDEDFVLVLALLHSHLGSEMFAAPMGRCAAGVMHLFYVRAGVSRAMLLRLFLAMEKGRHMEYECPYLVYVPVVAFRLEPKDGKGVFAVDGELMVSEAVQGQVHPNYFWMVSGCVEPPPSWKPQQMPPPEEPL

`CCCCCCCCCCCCC/C=C/[C@H](O)[C@@H](CO)NC(=N)N` [LCL351, L-erythro-2-N-(1′-carboxamidino)-sphingosine hydrochloride] was tested, and the IC50 [1] was ~5.5 µM and the IC50 [2] was ~57 µM.
